Columns and labels:
[1] = system: MM cell lines resistant to conventional therapies; assay: Growth inhibition (MTS assay and tritiated-thymidine uptake) in MM cell lines; assay type: cell-based; conditions: Homo sapiens, 48 h, read-out: median inhibitory concentration, myeloma cell growth
Procedure: (§1) Bortezomib-sensitive (MM.1S) and Bortezomib-resistant (MM.1R) human MM cell lines, as well as RPMI-8226 cells resistant to Doxorubicin (Dox 40), Mitoxantrone (MR20), and Melphalan (LR5), were cultured in RPMI-1640 media (Cellgro, Mediatech, VA) with 10% fetal bovine serum, 2 mmol/L L-glutamine (GIBCO, Grand Island, N.Y.), 100 U/mL penicillin, and […] streptomycin (GIBCO). Drug-resistant cell lines were cultured with either doxorubicin, mitoxantrone, melphalan or bortezomib to confirm their lack of drug sensitivity. MM patient cells were purified (>95% CD138+) by positive selection with anti-CD138 MACS Microbeads (Miltenyi, San Diego, Calif.).
(§2) DNA synthesis was measured by 3H-thymidine (NEN Products, Boston, Mass.) uptake. Cells were pulsed with 3H-thymidine (0.5 μCi/well) during the last 8 hours of 48-hour cultures. All of the experiments were performed in triplicate.
(§3) Cells from 24-, 48- or 72-hour cultures in 200 μL media plus drug were pulsed with 40 μL of 5 mg/mL MTS to each well for the last 4 hours of the cultures. Absorbance was measured at 490 nm using a spectrophotometer (Molecular Devices Corp., Sunnyvale, Calif.).

MM.1S cells = assay: Western blot of apoptosis and cell cycle markers in MM.1S cells; assay type: cell-based, human
Excerpt: (§4) Cell lysates were subjected to SDS-PAGE, transferred to polyvinylidene difluoride (PVDF) membrane, and immunoblotted with anti-acetylated histone (Upstate Biotechnology, Lake Placid, N.Y.), anti-p21 antibody (Santa Cruz Biotech, Santa Cruz, Calif.), anti-PARP; anti-caspase-8, anti-caspase-9 and anti-caspase 3 (Cell Signaling, MA); as well as anti-polyubiquitin conjugates, anti-LMP7, anti-β5 (Affiniti, Mamhead, Exeter, Devon, UK). Membranes were stripped and re-probed with anti-tubulin or anti-β-actin (Sigma, St Louis, Mo.) to ensure equivalent protein loading.

[2] = biological target: T1, HDAC6, or tubulin deacetylase (TDAC) (Homo sapiens, UniProt Q9UBN7); assay: Inhibition of TDAC (HDAC6, tubulin deacetylase) in MM.1S cells; assay type: cell-based; conditions: low nanomolar concentrations
T1 construct: endogenous in cells; host or cells: MM.1S cells
T1 sequence (Q9UBN7 1-1215): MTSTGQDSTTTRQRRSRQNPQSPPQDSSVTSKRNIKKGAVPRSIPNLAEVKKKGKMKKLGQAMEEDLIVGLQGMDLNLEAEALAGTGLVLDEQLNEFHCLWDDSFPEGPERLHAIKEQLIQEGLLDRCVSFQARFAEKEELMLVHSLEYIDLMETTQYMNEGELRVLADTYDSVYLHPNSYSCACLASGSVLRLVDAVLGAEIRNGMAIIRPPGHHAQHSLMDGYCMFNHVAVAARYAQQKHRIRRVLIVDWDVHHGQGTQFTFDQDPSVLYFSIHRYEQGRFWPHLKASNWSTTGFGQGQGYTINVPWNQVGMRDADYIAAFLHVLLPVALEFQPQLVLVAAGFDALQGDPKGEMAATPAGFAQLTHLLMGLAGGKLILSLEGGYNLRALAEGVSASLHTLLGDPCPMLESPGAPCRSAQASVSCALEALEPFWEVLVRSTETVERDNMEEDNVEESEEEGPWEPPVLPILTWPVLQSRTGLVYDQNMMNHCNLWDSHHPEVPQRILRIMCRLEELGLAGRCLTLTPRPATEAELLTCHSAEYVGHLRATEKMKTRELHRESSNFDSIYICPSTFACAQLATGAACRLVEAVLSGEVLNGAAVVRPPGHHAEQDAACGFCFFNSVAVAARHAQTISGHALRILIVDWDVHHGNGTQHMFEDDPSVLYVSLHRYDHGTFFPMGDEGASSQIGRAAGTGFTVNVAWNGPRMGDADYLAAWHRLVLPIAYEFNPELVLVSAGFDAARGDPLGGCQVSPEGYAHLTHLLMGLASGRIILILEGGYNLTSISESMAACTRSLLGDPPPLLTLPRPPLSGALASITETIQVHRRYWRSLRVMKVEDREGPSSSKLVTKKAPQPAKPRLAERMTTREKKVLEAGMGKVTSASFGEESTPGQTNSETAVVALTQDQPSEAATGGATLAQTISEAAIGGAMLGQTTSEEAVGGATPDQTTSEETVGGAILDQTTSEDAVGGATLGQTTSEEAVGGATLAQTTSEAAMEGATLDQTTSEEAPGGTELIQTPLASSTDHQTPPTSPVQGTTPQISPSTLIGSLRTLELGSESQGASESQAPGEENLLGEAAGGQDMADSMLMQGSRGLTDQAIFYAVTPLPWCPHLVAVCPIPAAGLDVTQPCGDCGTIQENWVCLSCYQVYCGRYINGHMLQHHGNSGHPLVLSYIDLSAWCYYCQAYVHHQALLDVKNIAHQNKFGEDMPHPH
Excerpt: as §4

[3] = system: MM.1S cells co-cultured with bone marrow stromal cells; assay: MM.1S proliferation in co-culture with bone marrow stromal cells; assay type: cell-based, human
Procedure: Bone marrow specimens were obtained from patients with MM. Mononuclear cells, separated by FicoII-Hipaque density sedimentation, were used to establish long-term BM cultures. When an adherent cell monolayer had developed, cells were harvested in HBSS containing 0.25% trypsin and 0.02% EDTA and were washed and collected by centrifugation. The BMSCs were then plated onto flat-bottom 96-well plates overnight, and then 3×10^4 mM.1S cells were added for 48 hours. 150 μL of supernatant was removed and cells were pulsed with [3H]thymidine (0.5 μCi/well) during the last 8 hours of 48-hour cultures.

MM cells = assay: Combination with proteasome inhibitor bortezomib on MM cells; assay type: cell-based, human
Procedure: DNA synthesis was measured by 3H-thymidine (NEN Products, Boston, Mass.) uptake. Cells were pulsed with 3H-thymidine (0.5 μCi/well) during the last 8 hours of 48-hour cultures. All of the experiments were performed in triplicate. Statistical significance of differences observed in drug-treated versus control cultures was determined using Student's t test. The minimal level of significance was p<0.05. […] The survival curves for mice were computed using the Kaplan-Meier method. The survival time differences between the control and treated group were compared using a log-rank test. The median survival times were compared using the Fisher-exact test. To compare the rate of tumor growth in the two arms, a linear mixed effect model (random coefficient model) was fitted.

MM patient cells = assay: Growth inhibition (MTS assay and tritiated-thymidine uptake) in MM patient cells; assay type: cell-based; conditions: Homo sapiens, 48 hours, read-out: median inhibitory concentration, myeloma cell growth
Procedure: as §1, §2, §3

With `Cc1[nH]c2ccccc2c1CCNCc1ccc(/C=C/C(=O)NO)cc1` [Compound (III), N-hydroxy-3-[4-[[[2-(2-methyl-1H-indol-3-yl)-ethyl]-amino]methyl]phenyl]-2E-2-propenamide] the IC50 [1] was less than 0.01 µM, the c-myc expression (MM.1S cells) was “down-regulation” and the p21 expression (MM.1S cells) was “up-regulation”. The “cleavage of caspase 8, caspase 9, caspase 3 and PARP” value (MM.1S cells; 20 nM) was “Significant cleavage”, the “inhibition of TDAC” value [2] was “dose-dependent inhibition” and the “MM.1S myeloma cell proliferation” value [3] was “inhibited”. The “activity in combination with bortezomib” value (MM cells) was “Synergistic activity” and the IC50 (MM patient cells) was less than 0.01 µM.

Source: patent US8883842B2, “Use of HDAC inhibitors for the treatment of myeloma” (Novartis AG, priority 2005, dated 2014)
